Like-named read-outs stand apart in the source and are kept apart here.
Experiments:
[1] = pH 7, cited from earlier work
Alfalfa seeds = assay: Pot test: germination of alfalfa seeds on treated soil; format: in vivo
Excerpt: The effectiveness of these granular materials in preventing the germination of alfalfa seeds was used as an assay of the continued performance of the 2,4-D admixed with the melamine compositions. As long as significant quantities of 2,4-D are present, alfalfa seed will not germinate completely. When the alfalfa seeds receiving the treatment germinate comparably to seeds which received no treatment, the period of effectiveness of the 2,4-D has ended.
Alfalfa seeds (1 gram) were planted on the surface of sieved unsterile compost soil in 2½ in. x 2½ in. (6.3 cm x 6.3 cm) plastic pots. Each test pot stood in a plastic saucer in order to avoid contamination between pots. After introduction of the seeds, the pots were well watered from the top and covered with another plastic dish until germination was established. This avoided unnecessary drying out of the soil and maintained an intimate moist atmosphere for seed germination. All test pots were kept in a controlled temperature room at 70°F for the duration of the trial. After germination was established the covers were removed to avoid any restriction of seedling growth. Seeds and plants were monitored daily, watered evenly as necessary, and growth changes recorded.
A series of four pot treatments was set up as follows: • (a) control pots to which no chemical was applied; • (b) 2,4-D alone (applied at a rate equivalent to 22.7 kg of 2,4-D/ ha ); • (c) 2,4-D/melamine granules of Example 1 (applied at a rate equivalent to 22.7 kg of 2,4-D/ha ); and • (d) melamine granules (not containing 2,4-D) in an amount equal to that used in treatment (c).
The melamine/binder ratio was essentially the same in the granules used in treatments (c) and (d), the difference being in the presence or absence of 2,4-D. The granules were used by distributing them over the soil surfaces in the pots.
For each treatment, replicates of three pots were set up in four groups (A), (B), (C) and (D) so that alfalfa seeds could be planted on undisturbed soil for each of the following three weeks. All pots in each series were treated equally from the outset with respect to applied material, watering and light. The experiment was started when the treatments were applied to all of the pots by sprinkling the applied material on the surface of the soil, and pots (A) were planted. One week later, alfalfa seeds were planted in pots (B). Another week later, pots (C) were planted with alfalfa seeds and finally three weeks after application of the chemicals, pots (D) were planted with alfalfa seeds.
The pots in the four groups of pots A, B, C and D thus were treated at the same time, some pots receiving treatment (a): no chemical applied, to provide a control; some treatment (b): 2,4-D alone applied; and so on. […]

weeds = assay: Pot test with Douglas-fir seedlings: weed growth on the soil surface; format: in vivo
Excerpt: (§1) The following granular herbicide formulations were used: • (a) 2,4-D 5%, melamine 71%, urea 24% • (b) 2,4-D 4.7%, melamine 88.1%, resin solids 7.2% • (c) 2,4-D/KL (a controlled release formulation of 2,4-D with kraft lignin 10%, melamine 72%, urea 18% • (d) Velpar® herbicide 5.35%, melamine 90.35%, resin solids 4.3% (V/MI) • (e) b and d, applied together • (f) control, no treatment • (g) technical 2,4-D treatment
(§2) Douglas-fir seedlings (2.0) were planted in 10" (25 cm) diameter pots. Each of the above five granule treatments was applied to three potted firs. Two control sets of potted seedlings had respectively no treatment, and an application of commercial 2,4-D, for comparison. In the application of the commercial 2,4-D, the fine powdered material was applied evenly to the soil surface, using the same 2,4-D material employed in making the granular formulations.
(§3) The 2,4-D was applied in all sets at the equivalent rate of 22.7 kg ai/ha and the Velpar® herbicide at 23.8 kg ai/ha (ai = active ingredient).
(§4) These sets were monitored for seedling height growth, growth quality of the seedling, and weed growth surrounding the seedling, represented as a % of soil surface.
There were no visible weeds present on the soil at the time of treatment. However, volunteer weed seeds were always present in the atmosphere and daily settled on the soil surface. […]

Douglas-fir seedlings = assay: Pot test with Douglas-fir seedlings: seedling height growth; format: in vivo; conditions: Fig. 4: 24 weeks after the treatment date
Excerpt: as §1, §2, §3, §4
In the drawings, Figs. 1 and 3 compare the weed growth observed following soil treatment, using the pot-planted Douglas fir seedlings. […]

[2] = Rate of release from granules in dialysis tubing into a water bath; format: physicochemical; conditions: after 8-9 days
Method: Each of these formulations was made up into granules that were screened to fall within the size range of 0.84 to 1.41 mm.
In order to make measurements on the amount of herbicide released from each set of granules, a sample was taken of each. The sample was placed in dialysis tubing. The tubing was submerged in a covered container of distilled water containing 10 liters of water at 22°C. The solution was agitated and 10 ml. aliquots were removed at appropriate times.
The aliquots were subjected to analyses by an ultra-violet spectrophotometer at 203, 247 and 284 nm. respectively, for determination of the contents of melamine and herbicide.

[3] = Table II (Example 3), soil treatment applied at 0 days, 22.7 kg of 2,4-D/ha

## Nc1nc(O)nc(O)n1 [Ammelide]
[1]; water at 20°C
  Solubility (g/100g): less than 0.008 g/100g

## Nc1nc(N)nc(N)n1.O=[N+]([O-])O [Melamine Nitrate]
[1]
  Solubility (g/100g): 0.85 g/100g

## Nc1nc(N)nc(O)n1 [Ammeline]
[1]; water at 20°C
  Solubility (g/100g): 0.008 g/100g

## O=c1[nH]c(=O)[nH]c(=O)[nH]1 [Cyanuric Acid]
[1]
  Solubility (g/100g): 0.27 g/100g

## Nc1nc(N)nc(N)n1 [Melamine]
[1]; water at 20°C
  Solubility (g/100g): 0.50 g/100g

## Nc1nc(N)nc(-c2ccccc2)n1 [Benzoguanamine]
[1]; water, 22°C
  Solubility (g/100g): 0.06 (22°C) g/100g

## NC(N)=O [Urea]
[1]; water, at 25°C
  Solubility (g/100g): 119.3 (at 25°C) g/100g

## O=C(O)COc1ccc(Cl)cc1Cl [2,4-D, 2,4-dichlorophenoxyacetic acid]
Alfalfa seeds; Example 3, (A) pots, planted at 0 days
  mortality or aborted germination: 100%
Alfalfa seeds; [3]
  Extent of Germination (B) Pots Planted; 7 Days Later: 80%
  Extent of Germination (C) Pots Planted; 14 Days Later: 90%
Alfalfa seeds; Table II (Example 3), soil treatment applied at 0 days, 22.7 kg of 2,4-D/ha, listed as 2,4-D alone
  Extent of Germination (D) Pots Planted; 21 Days Later: germinating as well as the controls
weeds; 2,4-D 22.7 kg ai/ha, Velpar herbicide 23.8 kg ai/ha
  weed control (in words): initially gave good weed control
weeds; by fourteen weeks, 22.7 kg ai/ha
  weed population occupied % of the soil surface: ~90%
Douglas-fir seedlings
  mean height growth: 28 cm.
Douglas-fir seedlings; control 20 cm
  height growth greater than the non-treated control: 40%
[2]
  herbicide entered the bath: 100%

## Potassium Acid Sulfate
[1]
  Solubility (g/100g): 51.4 g/100g

## N#CNC(=N)N [Dicyandiamide]
[1]
  Solubility (g/100g): 2.26 (at 13°C) g/100g

Reference: patent EP0135714B1, “Sustained release compositions for biologically active materials” (MELAMINE CHEMICALS, INC., priority 1983, dated 1985)
